{"source": "patent US6756504B2", "about": "“Sphingolipids” (Yissum Research Development Company of the Hebrew …, priority 2000, dated 2004)", "key": {"[1]": {"system": "HL60 cells", "assay": "HL60 total protein content (Bradford)", "assay_type": "cell-based, Human", "experimental": "(§1) HL60: Human leukemia cell line (ATCC CCL-240).\nThe effect of the AD-2646 compound on cell viability was further supported when the total protein content was quantified. HL60 cells were incubated as described above, with different concentrations of AD-2646. After 2 days the cells were collected, washed twice with saline, dispersed and following a short pulsing with a probe-sonicator their protein content was quantified by the Bradford procedure. Similarly to the viable cell counting results, the protein measurements indicated an IC50 value of 5 μM.\nTo analyze whether the AD-2646 compound may mediate its effect on cell viability and on total protein content, in cooperation with other compounds, the cooperative effect of this compound and Taxol was next evaluated. HL60 cells were incubated for two days with 4 μM AD2646 in the presence or absence of 2 ng Taxol.\nThe effect of different compounds of the invention on cell viability was next evaluated by measuring total cell protein quantity. Different cell lines were incubated for two days in the presence of increasing concentrations of the different compounds of the present invention."}, "[2]": {"system": "HL60 cells", "assay": "HL60 cell viability, viable cell count (trypan blue)", "assay_type": "cell-based, Human", "conditions": "HL60, 2 days, FIG. 1, read-out: IC50, number of living (non-blue) cells", "experimental": "as §1\nThe effect of AD-2646 on cell viability was analyzed by measuring cell mortality (viable cell count) and/or total protein quantity.\nHL60 cells grown in RMPI plus 10% fetal calf serum, were incubated with increasing concentrations of (2R,3R)-2-(N-tetradecylamine)-1-(4-nitro-phenyl)-1,3-propanediol (AD-2646) in 6- or 24-well dishes. […] After 2 days the cells were collected, washed twice with saline, treated with trypan blue and the number of living (non-blue) cells was counted. FIG. 1 indicates an IC50 value of 5 μM.\nKinetic of the observed killing effect of the AD-2646 compound was next examined. HL60 cells were incubated with 40 μM of AD-2646 for 1, 3, 5 and 7 hours. Already after 1 hour a reduction of 60% of the viable cell number was observed."}, "[3]": {"system": "HL60 cells", "assay": "Apoptosis in HL60 cells, propidium iodide flow cytometry (FACS)", "assay_type": "cell-based, Human", "experimental": "The apoptotic effect of three different compounds was further examined on HL60 cells using a flow cytometry method. […] Washed cells were then treated with 5% Triton and stained with propidium iodide 0.5% mg in 0.1% sodium citrate pH 7.4. Analysis was performed using a Becton Dickinson Fluorescence Activated Cell Sorter (FACS)."}, "[4]": {"system": "Bod3-SPM (sphingomyelin) synthesis in HL60 cells", "assay": "Sphingolipid metabolism from Bodipy-C3-ceramide: Bod3-SPM in HL60", "assay_type": "cell-based, Human", "conditions": "for IC50: HL60, 3 hours, 2.5 μM Bodipy-C3-ceramide, read-out: od 3-SPM (IC50 for reduction of Bod3-SPM, cell+medium); for inhibition of Bod3-SPM (fluorescent image): HL60, 10 μM", "experimental": "(§2) In order to examine the effect of the different compounds on sphingolipids metabolism, different cell lines were incubated with increasing concentrations of different compounds of the invention in the presence of 2.5 μM Bodipy-C3-ceramide that was added to the culture medium as a solution in dimethylsulfoxide (not exceeding 0.1% DMSO of the final volium). After 3 hours, cells and medium were collected and centrifuged. Cells were next extracted with chloroform-methanol containing 2% acetic acid 1:1 (by volume) and the medium was shaken with an equal volume of chloroform-methanol, 1:1 (by volume). The phases were separated by centrifugation and the lower chloroform phase was collected. The solvents were evaporated and applied to thin layer chromatography silica gel plates (Whatman 4865-821) with a concentrating zone.\n(§3) Plates were developed as follows: For medium: in chloroform-methanol-H2O, 75:25:4 by volume. For cells: plates were first developed with chloroform-methanol, 9:1, then dried and re-run in chloroform-methanol: H2O, 65:35:4.\n(§4) Standards of Bodipy-C3-ceramide: Bodipy-C3-glucosylceramide (Bod3-GC) and Bodipy C3 sphingomyelin (Bod3-SPM) were used as markers. The fluorescence of the respective Bod3-SPM and Bod3-GC spots was quantified using a Fuji FLA-2000 scanner."}, "[5]": {"system": "Bod3-GC (glucosylceramide) synthesis in HL60 cells", "assay": "Sphingolipid metabolism from Bodipy-C3-ceramide: Bod3-GC in HL60", "assay_type": "cell-based, Human", "conditions": "for reduction of the level of Bod3-GC (fluorescent image): HL60, 10 μM", "experimental": "as §2, §3, §4"}, "[6]": {"system": "Bod3-SPM synthesis in TSU-PR1 prostate cancer cells", "assay": "Sphingolipid metabolism: Bod3-SPM in TSU-PR1", "assay_type": "cell-based", "conditions": "TSU-PR1, 3 hours, FIG. 5; read-out: IC50 for reduction of Bod3-SPM", "experimental": "as §2, §3, §4\nThe effect of AD-2646 on sphingolipid metabolism was further examined using TSU-PR1 prostate cancer cells."}, "[7]": {"system": "Swiss mice", "assay": "In vivo toxicity of AD-2646, mice viability", "experimental": "Six groups, each of 5 Swiss mice were injected, intra-peritoneally with solutions of AD-2646, at varying concentrations, each in a volume of 100 μl. Injections were performed on days 1, 2, 3, 4, and mice viability was tested (Table 5)."}, "[8]": {"conditions": "literature (Wieder et al. 1998); cited from earlier work"}, "[9]": {"conditions": "HL60, two days, 4 μM AD-2646 plus 2 ng Taxol"}}}
{"smiles": "CC(C)(C)OC(=O)NCCCCCCCCCCCC(=O)Nc1ccc([C@H](O)[C@@H](CO)NC(=O)OC(C)(C)C)cc1", "note": "[AD-2620, (2R,3S)-2-BOC-amino-1-[4-N-(dodecanoyl-12-N-BOC amine)-phenyl)-1,3-propanediol]", "values": [{"measurement": "IC50", "setting": "[1]; HL60, two days, read-out: C50 (cell viability, total cell protein)", "value": 3, "unit": "µM"}]}
{"smiles": "CCCCCCCCCCCCCCN[C@H](CO)[C@H](O)c1ccc([N+](=O)[O-])cc1", "note": "[AD-2646, (2R,3R)-2-(N-tetradecylamine)-1-(4-nitrophenyl)-1,3-propanediol]", "values": [{"measurement": "IC50", "setting": "[2]", "value": 5, "unit": "µM"}, {"measurement": "IC50", "setting": "[1]; HL60, 2 days, Bradford, read-out: IC50, protein content", "value": 5, "unit": "µM"}, {"measurement": "Protein content", "setting": "[1]; [9]", "value": 93, "unit": "µg"}, {"measurement": "cooperative effect with Taxol on total protein quantity", "setting": "[1]; [9]", "value": "synergism"}, {"measurement": "apoptotic cells", "setting": "[3]; HL60, 3 hours, 10 μM", "value": 12, "unit": "%"}, {"measurement": "apoptotic cells", "setting": "[3]; HL60, 3 hours, 20 μM", "value": 18, "unit": "%"}, {"measurement": "apoptotic cells", "setting": "[3]; HL60, 3 hours, 40 μM", "value": 26, "unit": "%"}, {"measurement": "apoptotic cells", "setting": "[3]; HL60, 24 hours, 10 μM", "value": "about 50%"}, {"measurement": "IC50", "setting": "[4]", "value": "~6", "unit": "µM"}, {"measurement": "IC50", "setting": "[5]; HL60, 3 hours, 2.5 μM Bodipy-C3-ceramide, read-out: od 3-GC (IC50 for Bod3-GC reduction)", "value": 12, "unit": "µM"}, {"measurement": "IC50", "setting": "[6]", "value": "~5", "unit": "µM"}, {"measurement": "No. of mice in each day", "setting": "[7]; 1 mg/kg i.p. days 1-4, groups of 5 mice, day 1", "value": 5}, {"measurement": "No. of mice in each day", "setting": "[7]; 1 mg/kg i.p. days 1-4, groups of 5 mice, day 2", "value": 5}, {"measurement": "No. of mice in each day", "setting": "[7]; 1 mg/kg i.p. days 1-4, groups of 5 mice, day 3", "value": 5}, {"measurement": "No. of mice in each day", "setting": "[7]; 1 mg/kg i.p. days 1-4, groups of 5 mice, day 4", "value": 5}, {"measurement": "No. of mice in each day", "setting": "[7]; 1 mg/kg i.p. days 1-4, groups of 5 mice, day 5", "value": 5}, {"measurement": "No. of mice in each day", "setting": "[7]; 1 mg/kg i.p. days 1-4, groups of 5 mice, day 6", "value": 5}, {"measurement": "No. of mice in each day", "setting": "[7]; 5 mg/kg i.p. days 1-4, groups of 5 mice, day 1", "value": 5}, {"measurement": "No. of mice in each day", "setting": "[7]; 5 mg/kg i.p. days 1-4, groups of 5 mice, day 2", "value": 5}, {"measurement": "No. of mice in each day", "setting": "[7]; 5 mg/kg i.p. days 1-4, groups of 5 mice, day 3", "value": 5}, {"measurement": "No. of mice in each day", "setting": "[7]; 5 mg/kg i.p. days 1-4, groups of 5 mice, day 4", "value": 5}, {"measurement": "No. of mice in each day", "setting": "[7]; 5 mg/kg i.p. days 1-4, groups of 5 mice, day 5", "value": 5}, {"measurement": "No. of mice in each day", "setting": "[7]; 5 mg/kg i.p. days 1-4, groups of 5 mice, day 6", "value": 5}, {"measurement": "No. of mice in each day", "setting": "[7]; 10 mg/kg i.p. days 1-4, groups of 5 mice, day 1", "value": 5}, {"measurement": "No. of mice in each day", "setting": "[7]; 10 mg/kg i.p. days 1-4, groups of 5 mice, day 2", "value": 5}, {"measurement": "No. of mice in each day", "setting": "[7]; 10 mg/kg i.p. days 1-4, groups of 5 mice, day 3", "value": 5}, {"measurement": "No. of mice in each day", "setting": "[7]; 10 mg/kg i.p. days 1-4, groups of 5 mice, day 4", "value": 5}, {"measurement": "No. of mice in each day", "setting": "[7]; 10 mg/kg i.p. days 1-4, groups of 5 mice, day 5", "value": 5}, {"measurement": "No. of mice in each day", "setting": "[7]; 10 mg/kg i.p. days 1-4, groups of 5 mice, day 6", "value": 5}, {"measurement": "No. of mice in each day", "setting": "[7]; 25 mg/kg i.p. days 1-4, groups of 5 mice, day 2", "value": 5}, {"measurement": "No. of mice in each day", "setting": "[7]; 25 mg/kg i.p. days 1-4, groups of 5 mice, day 3", "value": 5}, {"measurement": "No. of mice in each day", "setting": "[7]; 25 mg/kg i.p. days 1-4, groups of 5 mice, day 4", "value": 5}, {"measurement": "No. of mice in each day", "setting": "[7]; 25 mg/kg i.p. days 1-4, groups of 5 mice, day 5", "value": 5}, {"measurement": "No. of mice in each day", "setting": "[7]; 25 mg/kg i.p. days 1-4, groups of 5 mice, day 6", "value": 5}, {"measurement": "No. of mice in each day", "setting": "[7]; 50 mg/kg i.p. days 1-4, groups of 5 mice, day 1", "value": 5}, {"measurement": "No. of mice in each day", "setting": "[7]; 50 mg/kg i.p. days 1-4, groups of 5 mice, day 2", "value": 5}]}
{"smiles": "CCCCCCCCCCCCCCN[C@H](CO)[C@H](O)c1ccc(N)cc1", "note": "[AD-2672, (2R,3R)-2-(N-tetradecylamine)-1-(4-aminophenyl)-1,3-propanediol]", "values": [{"measurement": "effect on level of Bod3-SPM (fluorescent image)", "setting": "[4]; HL60, 5 and 10 μM, FIG. 6", "value": "strongly reduces"}, {"measurement": "IC50", "setting": "[4]", "value": 4, "unit": "µM"}, {"measurement": "effect on level of Bod3-GC (fluorescent image)", "setting": "[5]; HL60, 5 and 10 μM, FIG. 6", "value": "not"}]}
{"smiles": "CCCCCCCCCCCC(=O)Nc1ccc([C@@H](O)[C@H](N)CO)cc1", "note": "[AD-2673, (2R,3R)-2 amino-1-(N-dodecanoylaminophenyl)-1,3-propanediol]", "values": [{"measurement": "inhibition of Bod3-SPM (fluorescent image)", "setting": "[4]; FIG. 6", "value": "low inhibition"}, {"measurement": "IC50", "setting": "[4]", "value": 6, "unit": "µM"}, {"measurement": "reduction of the level of Bod3-GC (fluorescent image)", "setting": "[5]; FIG. 6", "value": "much stronger reduction"}]}
{"smiles": "CCCCCCCCCCCC(=O)Nc1ccc([C@H](O)[C@@H](N)CO)cc1", "note": "[AD-2674]", "values": [{"measurement": "inhibition of Bod3-SPM (fluorescent image)", "setting": "[4]; FIG. 6", "value": "low inhibition"}, {"measurement": "reduction of the level of Bod3-GC (fluorescent image)", "setting": "[5]; FIG. 6", "value": "much stronger reduction"}]}
{"smiles": "CCCCCCCCCCCCCCCCOP(=O)([O-])OCC[N+](C)(C)C", "note": "[HePC, hexadecylphosphocholine]", "values": [{"measurement": "concentration shown to induce apoptosis", "setting": "[8]", "value": 25, "unit": "µM"}]}
{"smiles": "CC(=O)O[C@H]1C(=O)[C@@]2(C)[C@H]([C@H](OC(=O)c3ccccc3)[C@]3(O)C[C@H](OC(=O)[C@H](O)[C@@H](NC(=O)c4ccccc4)c4ccccc4)C(C)=C1C3(C)C)[C@]1(OC(C)=O)CO[C@@H]1C[C@@H]2O", "note": "[Taxol, reference compound]", "values": [{"measurement": "Protein content", "setting": "[1]; HL60, two days, 2 ng Taxol alone", "value": 206, "unit": "µg"}]}
